Measured values: US20240109881A1, “Heteroaryl Compounds as Ligand Directed Degraders of IRAK4” (Bristol-Myers Squibb Company, priority 2022, published 2024)
Structures can show the parent of a compound that is named as a salt. Where two headings read alike, the source gives them in different places.

Experiments:
[1] = Pharmacokinetic studies in mice (plasma PK, IV and PO); assay type: in vivo; conditions: female C57B16 mice; for FPO: PO 3.0 mg/kg vs IV 0.50 mg/kg, dose-normalized AUCLAST; for clearance: read-out: Clp; for Vd: read-out: VSS
Experimental: Due to the higher molecular weight and lipophilicity, targeted protein degraders generally occupy a physiochemical property space that is beyond Lipinski's rule of 5 and as consequence are expected to have poor oral bioavailability and overall pharmacokinetic properties. […] The plasma pharmacokinetics (PK) of P-394, P-155, P-139, and P-160 were characterized in female C57B16 mice following intravenous (IV; 0.5 mg/kg) administration. Plasma from the tail vein was withdrawn in composite fashion: one group of mice (n=3) provided samples at 2 min, 30 min, 2 h, and 8 h, while another group (n=3) provided samples at 15 min, 1 h, 4 h, and 24 h. The concentrations of test article in these samples were measured using reverse-phase LC-MS-MS and then plotted as a function of time. The resulting concentration-time data was processed using noncompartmental analysis for the calculation of clearance (Cl), volume of distribution at steady state (Vss), half-life, mean residence time (MRT) and area under the time curve (AUC).
Similarly, the PK was characterized following oral (PO; 3 mg/kg) administration. Again, plasma from the tail vein was withdrawn in composite fashion: one group of mice (n=3) provided samples at 15 min, 1 h, 4 h, and 8 h, while another group (n=3) provided samples at […], 2 h, and 24 h. Oral bioavailability (FPO) was calculated by comparing the results of the studies described, dividing the dose-normalized AUCLAST,PO by the dose-normalized AUCLAST,IV.

IRAK4 [2] = target: T1, IRAK4 (Homo sapiens, UniProt Q9NWZ3); test: ALE THP1 HTRF (Advanced Lipoxidation End Product THP1 Homogeneous Time Resolved Fluorescence); assay type: cell-based; conditions: THP1 cells
T1 construct: endogenous in cells; host or cells: THP-1 cells
T1 sequence (Q9NWZ3 1-460): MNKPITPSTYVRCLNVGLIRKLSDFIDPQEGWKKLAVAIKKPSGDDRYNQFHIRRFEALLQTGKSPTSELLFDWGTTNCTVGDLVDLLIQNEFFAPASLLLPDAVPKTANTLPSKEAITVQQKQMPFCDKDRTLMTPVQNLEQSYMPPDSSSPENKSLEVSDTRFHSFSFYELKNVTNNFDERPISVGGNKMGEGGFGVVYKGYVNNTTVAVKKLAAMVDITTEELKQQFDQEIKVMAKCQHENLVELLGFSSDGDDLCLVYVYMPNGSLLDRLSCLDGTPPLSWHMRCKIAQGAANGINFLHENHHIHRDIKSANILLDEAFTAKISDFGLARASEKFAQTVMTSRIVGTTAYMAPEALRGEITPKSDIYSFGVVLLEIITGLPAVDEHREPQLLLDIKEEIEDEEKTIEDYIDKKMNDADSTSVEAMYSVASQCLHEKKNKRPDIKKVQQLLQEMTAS
Summary of the method: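 Cells lysed 45 min at room temperature; lysates normalized to total protein by BCA. Total IRAK4 detected by HTRF sandwich (anti-IRAK4-d2 plus anti-IRAK4-cryptate), incubated overnight in the dark at room temperature, read on a time-resolved fluorescence plate reader.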

IRAK4 [3] = target: T1, IRAK4; test: LVL THP1 HTRF (THP1 Homogeneous Time Resolved Fluorescence); assay type: cell-based; conditions: THP1 cells, 18 h incubation with compound; for DC50: read-out: LVL THP1 HTRF EC50
Summary of the method: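 THP-1 cells in phenol red-free RPMI with 10% FBS were dosed with compound (20 nL in DMSO) for 18 h at 37° C. After 2 h lysis, IRAK4 was detected with anti-IRAK4-d2/anti-IRAK4-K HTRF antibodies for 18 h at room temperature and read at 665/615 nm; a parallel CTG plate was run.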

[4] = mouse, 0.5 mg/kg, IV 0.50 mg/kg, plasma
[5] = mouse, 0.5 mg/kg, plasma, IV 0.50 mg/kg

FPO [1]	AUC(0-t) [1, 4]	MRT [1, 4]	half-life [1, 4]	clearance [1, 4]	Vd [1, 4]	AUC(0-t) ([1]; mouse, PO 3.0 mg/kg, plasma)	Cmax ([1]; mouse, PO 3.0 mg/kg, plasma)	Tmax ([1]; mouse, PO 3.0 mg/kg, plasma)	ALE THP1 HTRF YMIN (IRAK4 [2])	EC50 (IRAK4 [2])	LVL THP1 HTRF YMIN (IRAK4 [3])	DC50 (IRAK4 [3])	SMILES	other results
39%	1.06 µM·h	4.59 h	2.98 h	10.6 mL/min/kg	2.91 L/kg	2.47 µM·h	380 nM	2 h	5.6%	1 nM	1.7%	11 nM	C[C@H](C#N)Nc1cc(-n2ncc3cc(C#N)cnc32)ncc1-n1cc([C@H]2CC[C@H](CCN3CCN(c4ccc(C5CCC(=O)NC5=O)cc4)CC3)CC2)nn1 (stereo partly drawn) [P-139, 1-(4-(((R)-1-cyanoethyl)amino)-5-(4-((1r,4R)-4-(2-(4-(4-(2,6-dioxopiperidin-3-yl)phenyl)piperazin-1-yl)ethyl)cyclohexyl)-1H-1,2,3-triazol-1-yl)pyridin-2-yl)-1H-pyrazolo[3,4-b]pyridine-5-carbonitrile, formic acid salt]	
~100%	2.01 µM·h	3.3 h	4.1 h	5.45 mL/min/kg	1.08 L/kg	13.7 µM·h	3010 nM	2 h	10.2%	2 nM	0.9%	6 nM	C[C@H](C#N)Nc1cc(-n2ncc3cc(C#N)cnc32)ncc1-n1cc(C2CCC(CCN3CCN(c4ccc(C5CCC(=O)NC5=O)cc4)[C@H](C)C3)CC2)nn1 (some centres unmarked) [P-155]	
31.6%	0.739 µM·h	3.8 h	3.2 h	14.9 mL/min/kg	3.37 L/kg	1.4 µM·h	245 nM	2 h	5.8%	4 nM	0.7%	4 nM	C[C@H](C#N)Nc1cc(-n2ncc3cc(C#N)c(N)nc32)ncc1-n1cc([C@H]2CC[C@H](CCN3CCN(c4ccc(C5CCC(=O)NC5=O)cc4)CC3)CC2)nn1 (stereo partly drawn) [P-160, 6-amino-1-(4-(((R)-1-cyanoethyl)amino)-5-(4-((1r,4R)-4-(2-(4-(4-(2,6-dioxopiperidin-3-yl)phenyl)piperazin-1-yl)ethyl)cyclohexyl)-1H-1,2,3-triazol-1-yl)pyridin-2-yl)-1H-pyrazolo[3,4-b]pyridine-5-carbonitrile, TFA]	
											1.4%	6 nM	CC[C@@H]1CN(CC[C@H]2CC[C@H](c3cn(-c4cnc(-n5ncc6cc(C#N)cnc65)cc4N[C@H](C)C#N)nn3)CC2)CCN1c1ccc(N2CCC(=O)NC2=O)cn1 [P-394, 1-(4-(((R)-1-cyanoethyl)amino)-5-(4-((1R,4R)-4-(2-((R)-4-(5-(2,4-dioxotetrahydropyrimidin-1(2H)-yl)pyridin-2-yl)-3-ethylpiperazin-1-yl)ethyl)cyclohexyl)-1H-1,2,3-triazol-1-yl)pyridin-2-yl)-1H-pyrazolo[3,4-b]pyridine-5-carbonitrile]	AUC(0-t) [1, 5]: 0.884 µM·h; MRT [1, 5]: 2.2 h; half-life [1, 5]: 1.7 h; clearance [1, 5]: 11.8 mL/min/kg; Vd [1, 5]: 1.58 L/kg; bioavailability ([1]; mouse, plasma, PO 3.00 mg/kg vs IV 0.50 mg/kg, dose-normalized AUCLAST ratio, read-out: FPO (oral bioavailability)): 26.6%; AUC(0-t) ([1]; mouse, plasma, PO 3.00 mg/kg): 1.41 µM·h; Cmax ([1]; mouse, plasma, PO 3.00 mg/kg): 559 nM; Tmax ([1]; mouse, plasma, PO 3.00 mg/kg): 0.25 h
